System: MDA-MB-231
Assay: Receptor binding competitive assay (triptorelin pre-treatment, MTT)
Format: cell-based, human
Settings: MDA-MB-231 pre-treated with 100 µM of triptorelin (TRN) for 2 h
Procedure: FIGS. 5A and 5B: Receptor binding competitive assay. MDA-MB-231 was pre-treated with triptorelin (TRN) and LM (LD5-mc-vc-PABC-MMAE) then the MTT assay was performed. (A) The IC50 value (nM) was calculated by non-linear regression (curve fit) for PC-3 and MDA-MB-231 with and without pre-treatment with triptorelin. (B) The cell viability in TRN-LM was assessed in comparison to LM in MDA-MB-231 (TNBC cell line). The cytotoxic effects of LM is reversed after pre-treatment with triptorelin indicating a significant role of LHRH-Rs in the mechanism of action of LM. Two-way ANOVA was performed followed by Sidak's multiple comparisons test (***p<0.00001). Error bars are standard deviations (STDV), n=8 (3 independent repeats).
Receptor binding competitive assay was performed to examine the association of cytotoxicity with binding to LHRH-Rs. TNBC cells (MDA-MB-231) were pre-treated with 100 µM of triptorelin (TRN) for 2 h to block the LHRH-R. The significant cytotoxic effects of LD5-mc-vc-PABC-MMAE (LM) was reversed after pre-treatment with TRN (FIGS. 5A and 5B).

Q: How did the “cytotoxic effects after pre-treatment with triptorelin” value turn out when `CCNC(=O)[C@@H]1CCCN1C(=O)[C@H](CCCNC(=N)N)NC(=O)[C@H](CC(C)C)NC(=O)[C@@H](CCCCNC1CC(=O)N(CCCCCC(=O)N[C@H](C(=O)N[C@@H](CCCNC(N)=O)C(=O)Nc2ccc(COC(=O)N(C)[C@H](C(=O)N[C@H](C(=O)N(C)[C@@H]([C@@H](C)CC)[C@@H](CC(=O)N3CCC[C@H]3[C@H](OC)[C@@H](C)C(=O)N[C@H](C)[C@@H](O)c3ccccc3)OC)C(C)C)C(C)C)cc2)C(C)C)C1=O)NC(=O)[C@H](Cc1ccc(O)cc1)NC(=O)[C@H](CO)NC(=O)[C@H](Cc1c[nH]c2ccccc12)NC(=O)[C@H](Cc1c[nH]cn1)NC(=O)[C@@H]1CCC(=O)N1` (stereo partly shown) [LD5-mc-vc-PABC-MMAE] was run?
A: reversed

— patent US20220211860A1, “PEPTIDE DERIVATIVES AND CONJUGATES THEREOF FOR TREATING CANCER” (priority 2019, published 2022)
